Patent publication US20240041042A1, “1-(PYRIDYL)-5-AZINYLPYRAZOLE DERIVATIVES, AND THEIR USE FOR CONTROL OF UNDESIRED PLANT GROWTH” (Bayer Aktiengesellschaft, priority 2020, published 2024)
Where two headings read alike, the source gives them in different places. Blank lines part the entries; values can stand above or below the compound they belong to.

How the values were obtained:
Type in all cases: in vivo
[1] = test system: Verconica persica (VERPE); experiment: Post-emergence herbicidal action against VERPE
How it was run: (§1)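 Rates were 320 g/ha or below, applied as aqueous WP/EC spray with 0.5% additive (600 l/ha) onto one-leaf-stage plants. About 3 weeks later in the greenhouse, damage was scored visually against untreated plants on a 0–100% scale, where 100% means plants died.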

[2] = test system: Polygonum convolvulus (POLCO); experiment: Post-emergence herbicidal action against POLCO
How it was run: as §1

[3] = test system: Amaranthus retroflexus (AMARE); experiment: Post-emergence herbicidal action against AMARE
How it was run: as §1

Zea mays (ZEAMX) [4] = details: pre-emergence, crop plant compatibility, in comparison to untreated controls
How it was run: (§2)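 Crop injury rated visually in percent against untreated plants roughly 3 weeks after treatment (0% no effect, 100% plants dead). Compounds, as WP or EC with 0.5% additive in 600 l/ha water, were applied to the covering soil right after sowing; greenhouse growth. Suffixes a, b, c denote different dosages.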

Oryza sativa (ORYSA) [5] = details: pre-emergence, crop plant compatibility, in comparison to untreated controls
How it was run: as §2

Glycine max (GLXMA) = details: pre-emergence, crop plant compatibility, in comparison to untreated controls
How it was run: as §2

Zea mays (ZEAMX) [6] = details: for Post-emergence action against ZEAMX in %: crop plant compatibility, 80 g/ha, effect vs untreated controls
How it was run: (§3)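 Visual rating (% effect vs. untreated plants; 100% = plant death) made about 3 weeks after treatment. Plants had been sprayed at one-leaf stage, 2–3 weeks post-sowing, with aqueous WP/EC preparations containing 0.5% additive, 600 l/ha water volume; a, b, c mark dose levels.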

Oryza sativa (ORYSA) [7] = details: crop plant compatibility
How it was run: as §3

Viola tricolor (VIOTR) [8] = experiment: Post-emergence herbicidal action against VIOTR
How it was run: as §1

[9] = test system: Alopecurus myosuroides (ALOMY); experiment: Post-emergence herbicidal action against ALOMY; details: visual rating about 3 weeks after treatment vs untreated controls (100% = plants have died, 0% = like control plants)
How it was run: as §1

[10] = test system: Pharbitis purpurea (PHBPU); experiment: Post-emergence herbicidal action against PHBPU; details: dosage 80 g/ha
How it was run: as §1

[11] = test system: Echinochloa crus-galli (ECHCG); experiment: Post-emergence herbicidal action against ECHCG
How it was run: as §1

[12] = test system: Abutilon theophrasti (ABUTH); experiment: Pre-emergence herbicidal action against ABUTH; details: Dosage column 320 g/ha (title prints 3200 g/ha); scored visually after about 3 weeks; 100% = plants have died
How it was run: (§4)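 Seeds sown in pots and covered with soil; WP or EC formulations sprayed onto the soil surface at 600 l/ha water with 0.5% additive, at 320 g/ha or lower. Greenhouse growth for about 3 weeks, then visual scoring as % effect against untreated controls (100% = plants dead).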

[13] = test system: Alopecurus myosuroides (ALOMY); experiment: Pre-emergence herbicidal action against ALOMY; details: 320 g/ha; scored visually after about 3 weeks; 100% = plants have died
How it was run: as §4

Setaria viridis (SETVI) [14] = experiment: Post-emergence herbicidal action against SETVI; details: dosage 80 g/ha
How it was run: as §1

Viola tricolor (VIOTR) [15] = experiment: Pre-emergence herbicidal action against VIOTR
How it was run: as §4

Avena fatua (AVEFA) [16] = experiment: Post-emergence herbicidal action against AVEFA; details: 80 g/ha, visual rating about 3 weeks after treatment
How it was run: as §1

[17] = test system: Abutilon theophrasti (ABUTH); experiment: Post-emergence herbicidal action against ABUTH; details: 80 g/ha, visual rating about 3 weeks after treatment vs untreated controls (100% = plants have died, 0% = like control plants)
How it was run: as §1

[18] = test system: Verconica persica (VERPE); experiment: Pre-emergence herbicidal action against VERPE; details: dosage 320 g/ha
How it was run: as §4

[19] = test system: Matricaria inodora (MATIN); experiment: Pre-emergence herbicidal action against MATIN
How it was run: as §4

Lolium rigidum (LOLRI) = experiment: Pre-emergence herbicidal action against LOLRI
How it was run: as §4

[20] = test system: Amaranthus retroflexus (AMARE); experiment: Pre-emergence herbicidal action against AMARE; details: visual scoring after about 3 weeks vs untreated controls
How it was run: as §4

[21] = test system: Polygonum convolvulus (POLCO); experiment: Pre-emergence herbicidal action against POLCO; details: dosage 320 g/ha
How it was run: as §4

Setaria viridis (SETVI) [22] = experiment: Pre-emergence herbicidal action against SETVI; details: dosage 320 g/ha
How it was run: as §4

Avena fatua (AVEFA) [23] = experiment: Pre-emergence herbicidal action against AVEFA; details: visual scoring after about 3 weeks vs untreated controls
How it was run: as §4

[24] = test system: Pharbitis purpurea (PHBPU); experiment: Pre-emergence herbicidal action against PHBPU
How it was run: as §4

[25] = test system: Matricaria inodora (MATIN); experiment: Post-emergence herbicidal action against MATIN; details: dosage 80 g/ha
How it was run: as §1

[26] = test system: Echinochloa crus-galli (ECHCG); experiment: Pre-emergence herbicidal action against ECHCG; details: dosage 320 g/ha
How it was run: as §4

[27] = test system: Digitaria sanguinalis (DIGSA); experiment: Post-emergence herbicidal action against DIGSA; details: 320 g/ha, visual rating about 3 weeks after treatment
How it was run: as §1

[28] = test system: Digitaria sanguinalis (DIGSA); experiment: Pre-emergence herbicidal action against DIGSA; details: dosage 320 g/ha
How it was run: as §4

[29] = 80 g/ha, visual rating about 3 weeks after treatment vs untreated controls (100% = plants have died, 0% = like control plants)
[30] = 80 g/ha, effect in comparison to untreated controls
[31] = 320 g/ha, effect in comparison to untreated controls

Pre-emergence action against ZEAMX in % (Zea mays (ZEAMX) [4]; 80 g/ha): 0%
Pre-emergence action against ZEAMX in % (Zea mays (ZEAMX) [4]; 320 g/ha): 10%
Pre-emergence action against ORYSA in % (Oryza sativa (ORYSA) [5]; 80 g/ha): 10%
Pre-emergence action against ORYSA in % (Oryza sativa (ORYSA) [5]; 320 g/ha): 20%
Pre-emergence action against GLXMA in % (Glycine max (GLXMA); 80 g/ha): 20%
Pre-emergence action against GLXMA in % (Glycine max (GLXMA); 320 g/ha): 20%
Post-emergence action against ZEAMX in % (Zea mays (ZEAMX) [6]): 20%
Post-emergence action against ORYSA in % (Oryza sativa (ORYSA) [7]; [30]): 10%
Post-emergence action against ORYSA in % (Oryza sativa (ORYSA) [7]; [31]): 20%
SMILES: C[C@@H](Oc1nn(-c2ccnc(Cl)c2)c(-c2ccc(F)nc2)c1Br)C(=O)O [III-30]
Post-emergence action against VERPE in % ([1]; 320 g/ha, VERPE): 80%
Post-emergence action against POLCO in % ([2]; dosage 320 g/ha): 90%
Post-emergence action against AMARE in % [3, 29]: 80%
Post-emergence action against AMARE in % ([3]; 320 g/ha, visual rating about 3 weeks after treatment): 90%
Post-emergence action against VIOTR in % (Viola tricolor (VIOTR) [8]; 320 g/ha): 80%
Post-emergence action against ALOMY in % ([9]; 320 g/ha): 80%

Pre-emergence action against GLXMA in % (Glycine max (GLXMA); 80 g/ha): 0%
Post-emergence action against ZEAMX in % (crop plant compatibility) (Zea mays (ZEAMX) [6]; 20 g/ha, ZEAMX, effect in comparison to untreated controls): 0%
Post-emergence action against ORYSA in % (Oryza sativa (ORYSA) [7]; 20 g/ha, effect vs untreated controls): 0%
SMILES: COC(=O)CCOC(=O)COc1nn(-c2ccccn2)c(-c2cncc(F)c2)c1Br [Example I-77]
Post-emergence action against PHBPU in % [10]: 90%
Post-emergence action against ECHCG in % ([11]; dosage 80 g/ha): 90%
Post-emergence action against VERPE in % ([1]; dosage 80 g/ha): 90%
Pre-emergence action against ABUTH [12]: 80%
Pre-emergence action against ALOMY [13]: 90%
Post-emergence action against SETVI in % (Setaria viridis (SETVI) [14]): 80%
Post-emergence action against POLCO in % ([2]; dosage 80 g/ha): 80%
Pre-emergence action against VIOTR in % (Viola tricolor (VIOTR) [15]; 320 g/ha, Viola tricolor): 100%
Pre-emergence action against VIOTR in % (Viola tricolor (VIOTR) [15]; dosage 80 g/ha): 90%
Post-emergence action against AMARE in % [3, 29]: 80%
Post-emergence action against AVEFA in % (Avena fatua (AVEFA) [16]): 90%
Post-emergence action against ABUTH in % [17]: 80%
Pre-emergence action against VERPE in % [18]: 90%
Pre-emergence action against MATIN in % ([19]; dosage 80 g/ha): 80%
Pre-emergence action against MATIN in % ([19]; dosage 320 g/ha): 90%
Pre-emergence action against LOLRI in % (Lolium rigidum (LOLRI); dosage 80 g/ha): 90%
Pre-emergence action against LOLRI in % (Lolium rigidum (LOLRI); dosage 320 g/ha): 100%
Pre-emergence action against AMARE in % ([20]; 80 g/ha): 90%
Pre-emergence action against AMARE in % ([20]; 320 g/ha): 100%
Pre-emergence action against POLCO in % [21]: 90%
Pre-emergence action against SETVI in % (Setaria viridis (SETVI) [22]): 100%
Pre-emergence action against AVEFA in % (Avena fatua (AVEFA) [23]; 80 g/ha): 80%
Pre-emergence action against AVEFA in % (Avena fatua (AVEFA) [23]; 320 g/ha): 90%
Post-emergence action against ALOMY in % ([9]; 80 g/ha): 90%
Pre-emergence action against PHBPU in % ([24]; dosage 80 g/ha): 80%
Pre-emergence action against PHBPU in % ([24]; dosage 320 g/ha): 90%
Post-emergence action against MATIN in % [25]: 90%
Pre-emergence action against ECHCG in % [26]: 100%

Pre-emergence action against GLXMA in % (Glycine max (GLXMA); 80 g/ha): 10%
Post-emergence action against ZEAMX in % (Zea mays (ZEAMX) [6]): 20%
Post-emergence action against ORYSA in % (Oryza sativa (ORYSA) [7]; [30]): 0%
Post-emergence action against ORYSA in % (Oryza sativa (ORYSA) [7]; [31]): 0%
SMILES: CC(C)C(Oc1nn(-c2ccccn2)c(-c2ccc(F)nc2)c1Br)C(=O)O (stereo not drawn) [Example I-347]
Post-emergence action against ECHCG in % ([11]; dosage 320 g/ha): 80%
Post-emergence action against DIGSA in % [27]: 80%
Pre-emergence action against ALOMY [13]: 80%
Post-emergence action against POLCO in % ([2]; dosage 320 g/ha): 80%
Pre-emergence action against VIOTR in % (Viola tricolor (VIOTR) [15]; 320 g/ha, Viola tricolor): 100%
Pre-emergence action against VIOTR in % (Viola tricolor (VIOTR) [15]; dosage 80 g/ha): 90%
Pre-emergence action against MATIN in % ([19]; dosage 320 g/ha): 80%
Post-emergence action against VIOTR in % (Viola tricolor (VIOTR) [8]; 80 g/ha): 80%
Post-emergence action against VIOTR in % (Viola tricolor (VIOTR) [8]; 320 g/ha): 80%
Pre-emergence action against POLCO in % [21]: 80%
Pre-emergence action against DIGSA in % [28]: 90%
Pre-emergence action against SETVI in % (Setaria viridis (SETVI) [22]): 80%
Post-emergence action against ALOMY in % ([9]; 320 g/ha): 80%
